Test: Solubility of Acid Blue 93 in several solvents
Format: physicochemical
Procedure: The solubility of Acid Blue 93, a water-soluble pH-sensitive triarylmethane dye, was determined by stirring 5 wt.-%0 of the dye in 95 wt.-%0 of the solvent. The following results reported in below Table 1 were obtained:
This is surprising since these water-soluble dyes are commonly known to be insoluble in organic solvents, as also seen in the above comparative solvents. In these comparative solvents, it can be observed that the solvent is not colored and that the dye remains in the form of particles and precipitates at the bottom of the recipient.

Solubility (5 wt.-% dye stirred in 95 wt.-% 1,2-propanediol): Soluble | Solubility (5 wt.-% dye stirred in 95 wt.-% 1-phenoxy-2-propanol): Insoluble | Solubility (5 wt.-% dye stirred in 95 wt.-% 1-phenoxy-ethanol): Insoluble | Solubility (5 wt.-% dye stirred in 95 wt.-% Carbitol (CAS 111-90-0)): Insoluble | Solubility (5 wt.-% dye stirred in 95 wt.-% benzylic alcohol): Insoluble | Solubility (5 wt.-% dye stirred in 95 wt.-% cyrene): Insoluble | Solubility (5 wt.-% dye stirred in 95 wt.-% diethyleneglycol): Soluble | Solubility (5 wt.-% dye stirred in 95 wt.-% dimethylsulfoxide): Soluble | Solubility (5 wt.-% dye stirred in 95 wt.-% dipropylene glycol): Insoluble | Solubility (5 wt.-% dye stirred in 95 wt.-% monoethyleneglycol): Soluble
Compound: O=S(=O)([O-])c1ccc(N=C2C=CC(=C(c3ccc(Nc4ccc(S(=O)(=O)[O-])cc4)cc3)c3ccc(Nc4ccc(S(=O)(=O)O)cc4)cc3)C=C2)cc1.[Na+].[Na+] [Acid Blue 93]

— patent US20240059915A1, “COLOR-CHANGE INK” (Société BIC, priority 2020, published 2024)
